{
  "source": "patent US10722491B2",
  "about": "“Phenol compound and combination of same with a benzodiazepine fused to 1,4-dihydropyridine for treating diseases of the central nervous and vascular systems” (UNIVERSIDAD DE LA HABANA, priority 2016, dated 2020)",
  "key": {"[1]": {"system": "PC12 cells", "experiment": "Cytoprotection against L-glutamate damage in PC12 cells (MTT)", "format": "cell-based", "conditions": "50 mM L-glutamate", "description": "FIG. 6. Cytoprotective effect of KM-34 10001-10 HM) against damage induced by L-glutamate (50 mmol/L) in cultures of PC12 cells. Viability (% live cells) was determined by the MTT assay. Cells were seeded at a density of 5×10^5 cells/mL in a 96-well plate. KM-34 was added simultaneously to the addition of L-glutamate. The culture was then allowed to incubate at 37° C, […] and 5% CO 2 for 4 hours. After this time the supernatant was removed and the cells were incubated with 20 μg of MTT for an additional 2 hours and the absorbance at 450 nm was measured with reference to 630 nm. The results are expressed as percentage of live cells relative to the control (cells without damage, 100% of live cells. * Represents significant differences (p<0.05) with respect to the L-glutamate control.\nFIG. 14. The survival rate for […] administered 50 mM Glutamate is shown. The control group was not administered 50 mM Glutamate. The remaining four groups were administered 50 mM Glutamate. The “Glu 50 mM” group was not administered any compounds of the invention. The “JM 0.01 μM” group was administered 0.01 μM JM-20. The “KM 0.01 μM” group was administered 0.01 μM KM-34. The “JM 0.01 μM+KM 0.01 μM” group was administered 0.01 μM JM-20 and 0.01 μM KM-34.\nAt values above 1 μM KM-34, the cytoprotection response is greater than 80%."}, "[2]": {"system": "PC12 cells", "experiment": "Cytoprotection against H2O2 damage in PC12 cells (MTT)", "format": "cell-based", "description": "FIG. 7. Cytoprotective effect of KM-34 (1-100 μM) against damage induced by H2O2 (150 μM) in cultures of PC12 cells. Viability (% live cells) was determined by the MTT assay. Cells were seeded at a density of 5×10^5 cells/mL in a 96-well plate. The KM-34 was added simultaneously to the addition of the H2O2 mixture. The culture was then allowed to incubate at 37° C, […] and 5% CO 2 for 4 hours. After this time the supernatant was removed and the cells were incubated with 20 μg of MTT for an additional 2 hours and the absorbance at 450 nm was measured with reference to 630 nm. The results are expressed as percentage of live cells relative to the control (undamaged cells, 100% live cells). The * represents significant differences (p<0.05) with respect to the H2O2 control.\nFIG. 15. The survival rate for […] administered 150 μM H2O2 is shown. The control group was not administered 150 μM H2O2. The remaining four groups were administered 150 μM H2O2. The “H2O2 150 μM” group was not administered any compounds of the invention. The “JM 1 μM” group was administered 1 μM JM-20. The “KM 0.1 μM” group was administered 0.1 μM KM-34. The “JM 1 μM+KM 0.1 μM” group was administered 1 μM JM-20 and 0.1 μM KM-34.\nH2O2 is formed in vivo spontaneously or enzymatically. At low concentrations this may be poorly reactive, however at high concentrations it may interact with and generate inactivation of the energy generating systems of the cells. In addition H2O2 is able to oxidize —SH groups of proteins and cause DNA strand rupture. Their most damaging effect is the formation of catalyzed transition metals by the Fenton-Habber-Weiss reaction (Martinez, 2005). This is based on the use of H2O2 in this test, with the aim of observing if the KM-34 is capable of reversing the damages caused by the chemical agent."}, "[3]": {"system": "animals damaged with 6-OHDA", "experiment": "6-OHDA Parkinson's model, cylinder test", "format": "in vivo, rats", "conditions": "7 days after 6-OHDA damage"}, "[4]": {"system": "scopolamine cognitive deficit", "experiment": "Scopolamine-induced dementia, T maze spontaneous alternation", "format": "in vivo, rats", "conditions": "2, 4 and 8 mg/kg p.o., 1 hour before scopolamine 1 mg/kg i.p.", "description": "FIG. 11. Effect of KM-34 on spatial memory. In the T labyrinth, KM-34 (2, 4 and 8 mg/k, p.o) was given 1 hour prior to scopolamine (1 mg/kg, i.p.). Data are expressed as mean ± SD (n=7, per group) of the percentage of spontaneous alternation. For statistical anal sis ANOVA and Tukey's multiple comparison test were performed. Different letters differ from each other for p<0.01. In in vivo models, KM-34 was administered orally (p.o) at a rate of 4 mL/kg body weight. Doses of 2, 4 and 8 mg/kg were evaluated as acute administration 90 minutes before the start of behavioral tests. For administration the compound was suspended in carboxymethylcellulose (CMC) 0.05%. Scopolamine bromide was dissolved in 0.9% saline solution and administered intraperitoneally as a single dose (1 mg/kg, 4 mL/kg body weight) 30 minutes prior to the initiation of the behavioral tests. The animals were randomly selected and divided into 5 experimental groups with different treatments (n=7, per group): control group (CMC and saline), vehicle group (CMC and scopolamine 1 mg/kg), KM-34 (KM-34 4 mg/kg and scopolamine 1 mg/kg) and (KM-34 8 mg/kg and scopolamine 1 mg/kg). […] The series of entries to each arm was recorded and the percentage of alternation was calculated as: (number of alternations performed/total of possible alternations)×100. […]"}},
  "data": [
    {"smiles": "CC1(C)OC(=O)C(=Cc2ccc(O)c(O)c2)C(=O)O1", "note": "[KM-34, 5-[(3,4-dihydroxyphenyl)methylidene]-2,2-dimethyl-1,3-dioxane-4,6-dione]", "values": [
      {"measurement": "Concentration significantly (P<0.01) inhibiting cell damage by L-glutamate", "setting": "[1]; 4 hours", "result": "greater than 0.01 μM"},
      {"measurement": "Cytoprotection response", "setting": "[1]; above 1 μM KM-34", "result": "greater than 80%"},
      {"measurement": "Concentration achieving significant cellular survival against H2O2", "setting": "[2]; 150 μM H2O2, 4 hours", "result": "higher than 5 μM"},
      {"measurement": "% cell survival", "setting": "[2]; 150 μM H2O2, concentrations higher than 50 μM", "result": "~90", "unit": "%"},
      {"measurement": "Cellular survival response", "setting": "[2]; 150 μM H2O2, from 25 μM KM-34", "result": "higher than 50%"},
      {"measurement": "% asymmetry, cylinder test", "setting": "[3]; 0.5 mg/kg", "result": "no statistically significant difference with respect to the damaged group without treatment"},
      {"measurement": "% asymmetry, cylinder test", "setting": "[3]; 2 mg/kg and 1 mg/kg", "result": "equal to the animals (healthy) animals"},
      {"measurement": "Spatial memory, percentage of spontaneous alternation in T maze", "setting": "[4]", "result": "significantly (p<0.01) protected from spatial memory damage"}
    ]}
  ]
}
